Molecular target: ATP-binding cassette sub-family C member 2 (Homo sapiens, UniProt Q92887)
Test: TP_TRANSPORTER: transepithelial transport (basal to apical) in MRP2-expressing MDCKII cells
Format: functional, cell-based
Conditions: dog, mdck-ii

ATP-binding cassette sub-family C member 2, sequence (Q92887 whole entry): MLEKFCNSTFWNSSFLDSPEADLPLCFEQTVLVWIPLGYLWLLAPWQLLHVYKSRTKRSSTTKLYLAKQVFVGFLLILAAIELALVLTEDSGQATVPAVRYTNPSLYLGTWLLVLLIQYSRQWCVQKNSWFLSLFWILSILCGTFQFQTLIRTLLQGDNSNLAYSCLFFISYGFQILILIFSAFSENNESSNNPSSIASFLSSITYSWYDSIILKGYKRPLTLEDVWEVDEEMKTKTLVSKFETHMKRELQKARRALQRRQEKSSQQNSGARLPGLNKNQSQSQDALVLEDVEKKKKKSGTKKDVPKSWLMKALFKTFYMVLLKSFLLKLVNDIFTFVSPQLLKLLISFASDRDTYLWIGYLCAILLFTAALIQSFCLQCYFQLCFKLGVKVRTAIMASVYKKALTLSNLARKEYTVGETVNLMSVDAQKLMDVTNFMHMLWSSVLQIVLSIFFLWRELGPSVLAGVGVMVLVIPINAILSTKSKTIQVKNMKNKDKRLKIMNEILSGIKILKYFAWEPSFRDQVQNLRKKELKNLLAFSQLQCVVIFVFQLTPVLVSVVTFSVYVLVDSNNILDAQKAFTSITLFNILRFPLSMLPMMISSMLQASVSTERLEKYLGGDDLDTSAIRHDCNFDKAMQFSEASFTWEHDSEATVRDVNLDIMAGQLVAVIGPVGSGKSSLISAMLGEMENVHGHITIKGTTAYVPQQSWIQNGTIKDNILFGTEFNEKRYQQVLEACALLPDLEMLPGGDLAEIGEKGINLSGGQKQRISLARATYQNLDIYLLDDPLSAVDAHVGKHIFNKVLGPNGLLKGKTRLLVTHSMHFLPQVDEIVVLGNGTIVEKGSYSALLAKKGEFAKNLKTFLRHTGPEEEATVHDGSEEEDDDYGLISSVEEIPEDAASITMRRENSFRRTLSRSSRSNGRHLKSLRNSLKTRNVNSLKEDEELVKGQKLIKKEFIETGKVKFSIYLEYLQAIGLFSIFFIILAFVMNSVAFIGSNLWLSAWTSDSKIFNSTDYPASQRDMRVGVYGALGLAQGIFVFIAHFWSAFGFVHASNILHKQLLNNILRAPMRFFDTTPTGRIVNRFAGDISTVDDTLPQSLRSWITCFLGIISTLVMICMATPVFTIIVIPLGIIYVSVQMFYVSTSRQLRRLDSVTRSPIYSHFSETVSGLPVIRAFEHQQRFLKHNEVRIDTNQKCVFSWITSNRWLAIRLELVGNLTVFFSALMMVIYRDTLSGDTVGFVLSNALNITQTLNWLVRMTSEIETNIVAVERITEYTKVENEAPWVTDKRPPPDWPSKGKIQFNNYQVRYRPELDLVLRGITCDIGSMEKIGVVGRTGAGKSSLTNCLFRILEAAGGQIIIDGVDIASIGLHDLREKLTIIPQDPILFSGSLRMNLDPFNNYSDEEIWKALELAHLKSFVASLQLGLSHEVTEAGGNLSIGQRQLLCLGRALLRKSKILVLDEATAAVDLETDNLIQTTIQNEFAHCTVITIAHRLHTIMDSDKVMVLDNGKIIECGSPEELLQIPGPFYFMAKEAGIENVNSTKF

`Cn1c(N)nc2ncc(-c3ccccc3)cc21` [2-AMINO-1-METHYL-6- PHENYLIMIDAZO[4,5- B]PYRIDINE] was tested, and the Activity was “substrate [+]”.

Source: ChEMBL document CHEMBL2073996, “Increased bioavailability of the food-derived carcinogen 2-amino-1-methyl-6-phenylimidazo[4,5-b]pyridine in MRP2-deficient rats” (Mol Pharmacol, 2001)
